# In patent publication US20080009418A1, “Selective Inhibitors” (Alchemia LTD., priority 2004, published 2008):
# Columns and labels:
# Human δ-opioid (DOP) = biological target: T1, Human δ-opioid (DOP) (Homo sapiens, UniProt P41143); assay: Radioligand binding, human δ-opioid (DOP) membranes, FlashPlate, [3H]-Bremazocine; details: compound at 10 μM; human δ-opioid (DOP) membranes
# T1 construct: purchased Perkin Elmer Biosignal
# Outline: (§1)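 Cloned human receptor membranes were coated onto FlashPlate wells and incubated with radioligand and compound (added from a 0.5 mM DMSO daughter plate) for 1 hour at room temperature in the dark. Scintillation counting gave percent inhibition, with DMSO defining total and reference ligand defining non-specific binding.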
# Human κ-Opioid (KOP) = biological target: T2, Human κ-Opioid (KOP) (Homo sapiens, UniProt P41145); assay: Radioligand binding, human κ-opioid (KOP) membranes, filtration, [3H]-Diprenorphine; details: compound at 10 μM; human κ-opioid (KOP) membranes
# T2 construct: purchased Perkin Elmer Biosignal
# Outline: (§2)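 Filtration binding on cloned human receptor membranes (1 Unit/well), [125I]-Substance P for NK1 and [3H]-Diprenorphine for KOP, 1 h at room temperature. Filters PEI-presoaked, washed with cold 50 mM Tris-HCl pH 7.4, counted by scintillation; percent inhibition calculated, reference ligand defining non-specific binding.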
# Human Melanocortin (MC3) = biological target: T3, Human Melanocortin (MC3) (Homo sapiens, UniProt P41968); assay: Radioligand binding, human melanocortin MC3 membranes, FlashPlate, [125I]-NDP-αMSH; details: compound at 10 μM; human melanocortin MC3 membranes
# T3 construct: purchased Perkin Elmer Biosignal
# Outline: as §1
# Human Melanocortin (MC4) = biological target: T4, Human Melanocortin (MC4) (Homo sapiens, UniProt P32245); assay: Radioligand binding, human melanocortin MC4 membranes, FlashPlate, [125I]-NDP-αMSH; details: compound at 10 μM; human melanocortin MC4 membranes
# T4 construct: purchased Perkin Elmer Biosignal
# Outline: as §1
# Human melanocortin (MC5) = biological target: T5, Human melanocortin (MC5) (Homo sapiens, UniProt P33032); assay: Radioligand binding, human melanocortin MC5 membranes, FlashPlate, [125I]-NDP-αMSH; details: compound at 10 μM; human melanocortin MC5 membranes
# T5 construct: purchased Perkin Elmer Biosignal
# Outline: as §1
# [1] = biological target: T6, Human melanin-concentrating hormone (MCH1) (Homo sapiens, UniProt Q99705); assay: Radioligand binding, human melanin-concentrating hormone MCH1 membranes, FlashPlate, [125I]-S36057; details: compound at 10 μM; human MCH1 membranes
# T6 construct: purchased Perkin Elmer Biosignal
# Outline: as §1
# Human μ-opioid (MOP) = biological target: T7, Human μ-opioid (MOP) (Homo sapiens, UniProt P35372); assay: Radioligand binding, human μ-opioid (MOP) membranes, FlashPlate, [3H]-Naloxone; details: compound at 10 μM; human μ-opioid (MOP) membranes
# T7 construct: purchased Perkin Elmer Biosignal
# Outline: as §1
# Human neurokinin (NK1) = biological target: T8, Human neurokinin (NK1) (Homo sapiens, UniProt P25103); assay: Radioligand binding, human neurokinin NK1 membranes, filtration, [125I]-Substance P; details: compound at 10 μM; human neurokinin NK1 membranes
# T8 construct: purchased Perkin Elmer Biosignal
# Outline: as §2
# [2] = biological target: T9, Human neuropeptide Y (NPY-Y1) (Homo sapiens, UniProt P25929); assay: Radioligand binding, human neuropeptide Y NPY-Y1 membranes, FlashPlate, [125I]-PYY; details: compound at 10 μM; human NPY-Y1 membranes
# T9 construct: purchased Perkin Elmer Biosignal
# T9 sequence (P25929 1-384): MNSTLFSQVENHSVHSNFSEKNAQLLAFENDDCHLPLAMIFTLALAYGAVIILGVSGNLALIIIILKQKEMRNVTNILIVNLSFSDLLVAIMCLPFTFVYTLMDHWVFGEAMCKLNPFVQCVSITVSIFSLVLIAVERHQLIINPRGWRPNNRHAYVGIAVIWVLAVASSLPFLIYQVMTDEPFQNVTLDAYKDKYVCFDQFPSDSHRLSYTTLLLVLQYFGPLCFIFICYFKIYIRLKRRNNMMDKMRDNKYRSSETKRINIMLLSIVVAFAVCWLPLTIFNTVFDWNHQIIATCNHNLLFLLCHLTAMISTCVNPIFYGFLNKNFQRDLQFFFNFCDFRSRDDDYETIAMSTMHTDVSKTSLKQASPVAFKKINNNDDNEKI
# Outline: as §1
# Human opioid (ORL1) = biological target: T10, Human opioid (ORL1) (Homo sapiens, UniProt P41146); assay: Radioligand binding, human opioid ORL1 membranes, FlashPlate, [125I]-Nociceptin; details: compound at 10 μM; human ORL1 membranes
# T10 construct: purchased Perkin Elmer Biosignal
# Outline: as §1
# Mouse urotensin (mUR2) = biological target: T11, Mouse urotensin (mUR2) (Mus musculus, UniProt Q8VIH9); assay: Radioligand binding, mouse urotensin mUR2 membranes, FlashPlate, [125I]-Urotensin II; details: compound at 10 μM; mouse urotensin mUR2 membranes
# T11 construct: purchased Perkin Elmer Biosignal
# T11 sequence (Q8VIH9 1-385): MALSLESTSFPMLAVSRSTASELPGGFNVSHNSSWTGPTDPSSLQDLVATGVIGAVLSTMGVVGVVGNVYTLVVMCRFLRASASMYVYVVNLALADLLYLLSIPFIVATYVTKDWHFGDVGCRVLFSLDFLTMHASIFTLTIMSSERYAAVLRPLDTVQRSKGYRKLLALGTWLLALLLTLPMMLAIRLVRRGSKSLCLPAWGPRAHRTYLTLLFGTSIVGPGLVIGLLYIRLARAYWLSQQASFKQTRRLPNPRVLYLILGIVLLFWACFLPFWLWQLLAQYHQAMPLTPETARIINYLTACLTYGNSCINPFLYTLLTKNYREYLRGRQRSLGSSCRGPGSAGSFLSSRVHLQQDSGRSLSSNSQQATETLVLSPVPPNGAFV
# Outline: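 Cloned mouse urotensin (mUR2) receptor membranes from Perkin Elmer Biosignal were immobilized in FlashPlate microplates using a proprietary coating. Each well got 19.5 μl buffer, then 0.5 μl of DMSO, reference ligand, or compound. Adding 5 μl of [125I]-Urotensin II, diluted to 5× final concentration in binding buffer, started binding. Plates were sealed with TopSeal-A and incubated 1 hour at room temperature in the dark. Wells were counted for 30 seconds each on a TopCount after a 60-second delay, and percentage inhibition was calculated.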
# T7 sequence (P35372 whole entry): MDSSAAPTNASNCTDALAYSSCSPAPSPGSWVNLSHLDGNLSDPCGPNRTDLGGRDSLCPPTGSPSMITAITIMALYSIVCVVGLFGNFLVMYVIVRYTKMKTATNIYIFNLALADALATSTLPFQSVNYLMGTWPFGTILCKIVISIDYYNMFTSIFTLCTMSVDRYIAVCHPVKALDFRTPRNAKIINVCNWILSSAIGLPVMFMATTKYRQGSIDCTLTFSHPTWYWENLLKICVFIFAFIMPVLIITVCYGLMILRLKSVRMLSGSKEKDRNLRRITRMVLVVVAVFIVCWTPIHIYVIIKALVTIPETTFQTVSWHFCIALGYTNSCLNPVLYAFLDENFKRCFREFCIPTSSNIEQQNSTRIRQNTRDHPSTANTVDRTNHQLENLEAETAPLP
# T8 sequence (P25103 whole entry): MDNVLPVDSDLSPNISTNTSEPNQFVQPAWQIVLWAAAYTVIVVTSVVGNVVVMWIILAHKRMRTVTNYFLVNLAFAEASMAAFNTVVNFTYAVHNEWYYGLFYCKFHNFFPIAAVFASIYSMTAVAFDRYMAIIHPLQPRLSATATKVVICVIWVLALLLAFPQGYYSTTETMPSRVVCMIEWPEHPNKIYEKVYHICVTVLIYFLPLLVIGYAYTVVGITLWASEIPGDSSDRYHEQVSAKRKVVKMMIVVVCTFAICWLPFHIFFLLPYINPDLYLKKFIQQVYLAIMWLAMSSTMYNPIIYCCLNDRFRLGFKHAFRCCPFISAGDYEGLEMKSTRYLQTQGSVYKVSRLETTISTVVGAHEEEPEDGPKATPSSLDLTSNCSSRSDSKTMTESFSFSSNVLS
# T4 sequence (P32245 whole entry): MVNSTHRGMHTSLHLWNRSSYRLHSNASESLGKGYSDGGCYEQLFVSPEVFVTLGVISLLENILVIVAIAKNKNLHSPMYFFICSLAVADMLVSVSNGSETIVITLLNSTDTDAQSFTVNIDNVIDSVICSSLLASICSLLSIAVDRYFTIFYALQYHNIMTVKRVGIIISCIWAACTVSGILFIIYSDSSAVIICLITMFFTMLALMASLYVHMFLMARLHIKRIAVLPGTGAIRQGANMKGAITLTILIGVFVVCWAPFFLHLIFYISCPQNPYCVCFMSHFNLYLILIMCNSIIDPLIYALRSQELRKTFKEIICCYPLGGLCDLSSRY
# T10 sequence (P41146 whole entry): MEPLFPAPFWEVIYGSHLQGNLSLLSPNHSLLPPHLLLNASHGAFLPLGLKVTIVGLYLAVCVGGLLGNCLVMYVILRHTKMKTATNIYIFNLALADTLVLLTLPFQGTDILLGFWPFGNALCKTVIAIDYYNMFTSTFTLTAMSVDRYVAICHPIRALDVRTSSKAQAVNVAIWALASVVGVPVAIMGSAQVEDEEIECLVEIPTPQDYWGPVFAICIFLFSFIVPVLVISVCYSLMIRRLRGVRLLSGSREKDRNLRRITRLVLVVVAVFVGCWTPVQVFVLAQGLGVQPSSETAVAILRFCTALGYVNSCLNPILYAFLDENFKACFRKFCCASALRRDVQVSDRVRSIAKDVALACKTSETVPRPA
# T6 sequence (Q99705 whole entry): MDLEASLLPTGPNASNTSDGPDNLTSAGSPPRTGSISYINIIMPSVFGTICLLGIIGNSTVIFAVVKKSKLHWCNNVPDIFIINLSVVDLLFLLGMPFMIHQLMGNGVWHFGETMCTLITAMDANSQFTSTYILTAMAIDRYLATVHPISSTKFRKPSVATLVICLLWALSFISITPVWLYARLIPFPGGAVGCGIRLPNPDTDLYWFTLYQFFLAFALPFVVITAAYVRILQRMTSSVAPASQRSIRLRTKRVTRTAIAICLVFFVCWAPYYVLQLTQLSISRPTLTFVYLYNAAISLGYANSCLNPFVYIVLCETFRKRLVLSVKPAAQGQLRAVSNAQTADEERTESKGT
# T3 sequence (P41968 whole entry): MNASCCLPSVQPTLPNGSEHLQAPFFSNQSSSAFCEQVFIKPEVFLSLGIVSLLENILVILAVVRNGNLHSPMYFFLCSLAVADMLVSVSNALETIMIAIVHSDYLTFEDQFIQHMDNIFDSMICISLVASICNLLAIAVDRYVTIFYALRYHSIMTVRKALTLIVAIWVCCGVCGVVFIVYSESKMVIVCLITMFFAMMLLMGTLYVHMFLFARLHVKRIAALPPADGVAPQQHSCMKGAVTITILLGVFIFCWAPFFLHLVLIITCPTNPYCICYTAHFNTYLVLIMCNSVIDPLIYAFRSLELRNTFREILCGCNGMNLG
# T5 sequence (P33032 whole entry): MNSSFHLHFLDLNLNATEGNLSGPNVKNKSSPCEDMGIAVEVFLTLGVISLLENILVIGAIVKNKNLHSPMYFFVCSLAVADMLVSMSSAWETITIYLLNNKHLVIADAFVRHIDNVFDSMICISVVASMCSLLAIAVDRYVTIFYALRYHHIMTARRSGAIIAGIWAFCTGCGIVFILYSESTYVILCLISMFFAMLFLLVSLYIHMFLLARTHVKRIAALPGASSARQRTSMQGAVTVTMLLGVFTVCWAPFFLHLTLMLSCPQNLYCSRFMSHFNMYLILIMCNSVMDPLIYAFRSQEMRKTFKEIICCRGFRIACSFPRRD
# T1 sequence (P41143 whole entry): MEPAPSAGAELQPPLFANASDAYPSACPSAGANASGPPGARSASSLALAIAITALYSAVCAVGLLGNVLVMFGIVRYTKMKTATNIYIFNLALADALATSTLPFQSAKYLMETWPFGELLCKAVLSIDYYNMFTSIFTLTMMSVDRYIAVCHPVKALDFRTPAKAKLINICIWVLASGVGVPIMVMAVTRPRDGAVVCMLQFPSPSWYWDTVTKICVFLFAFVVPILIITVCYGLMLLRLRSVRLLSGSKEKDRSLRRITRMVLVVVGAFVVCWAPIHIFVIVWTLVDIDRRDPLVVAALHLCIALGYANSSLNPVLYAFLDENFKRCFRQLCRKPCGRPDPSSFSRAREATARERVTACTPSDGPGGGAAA
# T2 sequence (P41145 whole entry): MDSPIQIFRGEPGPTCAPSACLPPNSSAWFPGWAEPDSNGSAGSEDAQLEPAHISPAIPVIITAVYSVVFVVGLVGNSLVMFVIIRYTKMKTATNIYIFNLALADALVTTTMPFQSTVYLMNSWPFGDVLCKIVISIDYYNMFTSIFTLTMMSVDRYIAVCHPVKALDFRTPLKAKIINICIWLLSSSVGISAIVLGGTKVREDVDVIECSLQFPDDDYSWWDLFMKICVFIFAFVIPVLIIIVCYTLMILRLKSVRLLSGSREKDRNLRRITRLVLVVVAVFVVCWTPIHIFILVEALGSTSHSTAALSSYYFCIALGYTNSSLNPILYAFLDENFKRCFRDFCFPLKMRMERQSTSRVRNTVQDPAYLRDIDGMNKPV
Compound,A1 radioligand binding inhibition (Human δ-opioid (DOP)),A2 radioligand binding inhibition (Human κ-Opioid (KOP)),A3 radioligand binding inhibition (Human Melanocortin (MC3)),A4 radioligand binding inhibition (Human Melanocortin (MC4)),A5 radioligand binding inhibition (Human melanocortin (MC5)),A6 radioligand binding inhibition [1],A7 radioligand binding inhibition (Human μ-opioid (MOP)),A8 radioligand binding inhibition (Human neurokinin (NK1)),A9 radioligand binding inhibition [2],A10 radioligand binding inhibition (Human opioid (ORL1)),A11 radioligand binding inhibition (Mouse urotensin (mUR2))
CO[C@H]1[C@H](O)[C@@H](COCc2ccc(Cl)cc2)OC(OCc2ccc3ccccc3c2)[C@@H]1NC(=O)CCNC(=N)N (stereo partly drawn) [compound 79],− (“−” indicates less than 50% inhibition at 10 μM),− (“−” indicates less than 50% inhibition at 10 μM),− (“−” indicates less than 50% inhibition at 10 μM),+ (“+” indicates greater than 50% inhibition at 10 μM),+ (“+” indicates greater than 50% inhibition at 10 μM),− (“−” indicates less than 50% inhibition at 10 μM),+ (“+” indicates greater than 50% inhibition at 10 μM),+ (“+” indicates greater than 50% inhibition at 10 μM),− (“−” indicates less than 50% inhibition at 10 μM),− (“−” indicates less than 50% inhibition at 10 μM),− (“−” indicates less than 50% inhibition at 10 μM)
CO[C@H]1[C@H](O)[C@@H](COCc2ccc(Cl)cc2)OC(OCc2ccc3ccccc3c2)[C@@H]1NC(=O)CCCN (stereo partly drawn) [compound 80],− (“−” indicates less than 50% inhibition at 10 μM),− (“−” indicates less than 50% inhibition at 10 μM),− (“−” indicates less than 50% inhibition at 10 μM),+ (“+” indicates greater than 50% inhibition at 10 μM),+ (“+” indicates greater than 50% inhibition at 10 μM),− (“−” indicates less than 50% inhibition at 10 μM),− (“−” indicates less than 50% inhibition at 10 μM),+ (“+” indicates greater than 50% inhibition at 10 μM),− (“−” indicates less than 50% inhibition at 10 μM),− (“−” indicates less than 50% inhibition at 10 μM),− (“−” indicates less than 50% inhibition at 10 μM)
CO[C@H]1[C@H](O)[C@@H](COCc2ccc(Cl)cc2)OC(OCc2ccc3ccccc3c2)[C@@H]1NC(=O)CCCNC(=N)N (stereo partly drawn) [compound 81],− (“−” indicates less than 50% inhibition at 10 μM),+ (“+” indicates greater than 50% inhibition at 10 μM),+ (“+” indicates greater than 50% inhibition at 10 μM),+ (“+” indicates greater than 50% inhibition at 10 μM),+ (“+” indicates greater than 50% inhibition at 10 μM),− (“−” indicates less than 50% inhibition at 10 μM),+ (“+” indicates greater than 50% inhibition at 10 μM),+ (“+” indicates greater than 50% inhibition at 10 μM),− (“−” indicates less than 50% inhibition at 10 μM),− (“−” indicates less than 50% inhibition at 10 μM),− (“−” indicates less than 50% inhibition at 10 μM)
CO[C@H]1[C@H](O)[C@@H](COCc2ccc(-c3ccccc3)cc2)OC(OCc2ccccc2)[C@@H]1NC(=O)CNC(=N)N (stereo partly drawn) [compound 82],− (“−” indicates less than 50% inhibition at 10 μM),− (“−” indicates less than 50% inhibition at 10 μM),− (“−” indicates less than 50% inhibition at 10 μM),+ (“+” indicates greater than 50% inhibition at 10 μM),− (“−” indicates less than 50% inhibition at 10 μM),− (“−” indicates less than 50% inhibition at 10 μM),− (“−” indicates less than 50% inhibition at 10 μM),+ (“+” indicates greater than 50% inhibition at 10 μM),− (“−” indicates less than 50% inhibition at 10 μM),− (“−” indicates less than 50% inhibition at 10 μM),− (“−” indicates less than 50% inhibition at 10 μM)
CO[C@H]1[C@H](O)[C@@H](COCc2ccc(-c3ccccc3)cc2)OC(OCc2ccccc2)[C@@H]1NC(=O)CCNC(=N)N (stereo partly drawn) [compound 83],− (“−” indicates less than 50% inhibition at 10 μM),− (“−” indicates less than 50% inhibition at 10 μM),− (“−” indicates less than 50% inhibition at 10 μM),− (“−” indicates less than 50% inhibition at 10 μM),+ (“+” indicates greater than 50% inhibition at 10 μM),− (“−” indicates less than 50% inhibition at 10 μM),+ (“+” indicates greater than 50% inhibition at 10 μM),+ (“+” indicates greater than 50% inhibition at 10 μM),− (“−” indicates less than 50% inhibition at 10 μM),− (“−” indicates less than 50% inhibition at 10 μM),− (“−” indicates less than 50% inhibition at 10 μM)
CO[C@H]1[C@H](O)[C@@H](COCc2ccc(-c3ccccc3)cc2)OC(OCc2ccccc2)[C@@H]1NC(=O)CCCN (stereo partly drawn) [compound 84],− (“−” indicates less than 50% inhibition at 10 μM),− (“−” indicates less than 50% inhibition at 10 μM),− (“−” indicates less than 50% inhibition at 10 μM),− (“−” indicates less than 50% inhibition at 10 μM),− (“−” indicates less than 50% inhibition at 10 μM),− (“−” indicates less than 50% inhibition at 10 μM),− (“−” indicates less than 50% inhibition at 10 μM),+ (“+” indicates greater than 50% inhibition at 10 μM),− (“−” indicates less than 50% inhibition at 10 μM),− (“−” indicates less than 50% inhibition at 10 μM),− (“−” indicates less than 50% inhibition at 10 μM)
